Measured values: patent publication US9868935B2, “Composition and method of stem cells for preservation of cardiac tissue” (CRIOESTAMINAL, SAÚDE E TECNOLOGIA, SA., priority 2012, dated 2018)

Tests used:
[1] = system: CD34+ cells encapsulated in fibrin gel; test: Survival of CD34+ cells encapsulated in fibrin gels in hypoxia and serum deprived conditions; format: cell-based, human; settings: LPA-treated
Description: In an embodiment, fibrin gels were formed by crosslinking of fibrinogen in the presence of thrombin (both from Sigma-Aldrich). The fibrinogen solution was prepared by dissolving human fibrinogen in Tris-buffered saline (TBS) (preferably, Sigma-Aldrich), pH 7.4 (20 mg/mL), and then sterilized by filtering through a 0.22 μm syringe filter (Acrodisc, Pall, NY, USA). Fresh thrombin solutions were prepared by dissolving human thrombin in TBS at pH 7.4 at a concentration of 50 U/mL. Fibrin gels (200 μL, unless otherwise stated) were prepared by mixing three different components: fibrinogen (10 mg/mL), CaCl2 (preferably, Merck, NJ, USA) ([…]) and thrombin (0.2 U/mL). This solution was allowed to gel at 37° C. and 100% relative humidity.
Injectable scaffolds are very promising vehicles to deliver stem cells for regenerative medicine since they provide a favorable structural support for cell survival and proliferation (Pedroso, D. C., et al., Improved survival, vascular differentiation and wound healing potential of stem cells co-cultured with endothelial cells. PLoS One, 2011. 6(1): p. e16114; Kraehenbuehl, T. P., R. Langer, and L. S. Ferreira, Three-dimensional biomaterials for the study of human pluripotent stem cells. Nat Methods, 2011. 8(9): p. 731-6; Nakamuta, J. S., et al., Cell therapy attenuates cardiac dysfunction post myocardial infarction: effect of timing, routes of injection and a fibrin scaffold. PLoS One, 2009. 4(6): p. e6005.). Several studies have shown that cells transplanted with scaffolds in the cardiac setting improved cell survival, induced angiogenesis and preserved cardiac function after infarction (Nakamuta, J. S., et al., Cell therapy attenuates cardiac dysfunction post myocardial infarction: effect of timing, routes of injection and a fibrin scaffold. PLoS One, 2009. 4(6): p. e6005; Christman, K. L., et al., Fibrin glue alone and skeletal myoblasts in a fibrin scaffold preserve cardiac function after myocardial infarction. Tissue Eng, 2004. 10(3-4): p. 403-9; Kraehenbuehl, T. P., et al., Human embryonic stem cell-derived microvascular grafts for cardiac tissue preservation after myocardial infarction. Biomaterials, 2011. 32(4): p. 1102-9; Kutschka, I., et al., Collagen matrices enhance survival of transplanted cardiomyoblasts and contribute to functional improvement of ischemic rat hearts. Circulation, 2006. 114(1 Suppl): p. I167-73). […] Cell viability was evaluated by flow cytometry using Annexin V/propidium iodide (PI) staining.

[2] = molecular target: T1, peroxisome proliferator-activator receptor γ (PPAR γ) (Homo sapiens, UniProt P37231); settings: literature studies; cited from earlier work
T1 sequence (P37231 1-505): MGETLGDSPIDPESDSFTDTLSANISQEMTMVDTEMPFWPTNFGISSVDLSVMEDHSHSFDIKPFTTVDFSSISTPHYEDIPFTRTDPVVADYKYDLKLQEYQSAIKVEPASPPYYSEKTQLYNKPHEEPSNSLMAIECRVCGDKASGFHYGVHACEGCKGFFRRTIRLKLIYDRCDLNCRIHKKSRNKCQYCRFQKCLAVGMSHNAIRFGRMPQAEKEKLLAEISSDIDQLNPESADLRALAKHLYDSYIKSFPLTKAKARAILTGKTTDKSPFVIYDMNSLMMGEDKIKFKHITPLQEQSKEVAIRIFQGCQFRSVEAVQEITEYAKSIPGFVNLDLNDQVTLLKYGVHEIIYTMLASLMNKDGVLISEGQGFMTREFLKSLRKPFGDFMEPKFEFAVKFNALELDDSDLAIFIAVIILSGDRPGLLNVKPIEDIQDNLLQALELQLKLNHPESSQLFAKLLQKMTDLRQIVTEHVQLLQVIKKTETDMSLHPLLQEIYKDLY

CD34+ cells = test: CD34+ cell proliferation after hypoxia 24 h then normoxia 6 days; format: cell-based, human; settings: LPA 100 μM; 24 h hypoxia + 6 days normoxia (7 days period)
From the text: LPA is highly mitogenic for quiescent cells. The mitogenic action of LPA involves the activation of a pertussis toxin-insensitive G protein with subsequent Ca^2+ mobilization and stimulation of protein kinase C, release of arachidonic acid in a GTP-dependent manner, and activation of a pertussis toxinsensitive Gi protein mediating inhibition of adenylate cyclase (van Corven, E. J., et al., Lysophosphatidate-induced cell proliferation: identification and dissection of signaling pathways mediated by G proteins. Cell, 1989. 59(1): p. 45-54). To determine whether LPA can induce the proliferation of CD34+ cells, a suspension of untreated or LPA-treated cells (2×10^^5 cells in 200 μL of X-vivo medium) was exposed to hypoxia for 24 h and then cultured under normoxia conditions for 6 additional days. LPA-treated cells increased their number approximately 3-fold over the 7 days period while untreated cells decreased to half of their initial number (FIG. 3A).

## lysophosphatidic acid [LPA]
[1]; encapsulated in fibrin gel, hypoxia day 1
  viable cells: 69.0±0.7%
[1]; encapsulated in fibrin gel, hypoxia day 3
  viable cells: 51.1±0.8%
[1]; non-encapsulated, hypoxia day 1
  viable cells: 76.7±1.5%
[1]; non-encapsulated, hypoxia day 3
  viable cells: 37.2±6.6%
[2]
  affinity for PPARγ: high affinity
CD34+ cells
  increase in cell number: approximately 3 fold
